Laboratory results: patent US10689378B2, “Triazolopyridine compounds and uses thereof” (Novartis AG, priority 2016, dated 2020)

How the values were obtained:
[1] = target: wild type PRC2 (wtPRC2) complex (Homo sapiens, UniProt O75530); assay: EED LC-MS assay (SAH production by PRC2); type: biochemical; conditions: PRC2 LC-MS assay; read-out: (b) IC50 EED LC-MS Qualified
In short: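 LC-MS/MS readout of SAH (d4-SAH standard) after TFA quench gives PRC2 activity, normalized to controls and fitted to dose-response for IC50. Reaction: 12 nM EZH2/SUZ12/EED/Rbap48/AEBP complex, 1 μM SAM, 1.5 μM H3[21-44] peptide, 120 min rt, 20 min compound preincubation.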

[2] = system: H3K27 methylation in G401 cell; assay: ELISA (H3K27 methylation) assay in G401 cells; type: cell-based, human; conditions: Homo sapiens, G-401, H3K27 methylation ELISA, read-out: (c) IC50 ELISA Qualified
In short: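 IC50 from dose-response fit of percent inhibition relative to DMSO, using H3K27me3/me2 ELISA signal (ECL) normalized to histone H3. Histones HCl-extracted after 48 h compound exposure of G401 cells at up to 20 μM, 8- or 12-point 3-fold series.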

[3] = target: T1, EED (1-441)-His protein (Homo sapiens, UniProt O75530); assay: EED-H3K27Me3 peptide competition binding assay by AlphaScreen; conditions: EED-H3K27Me3 peptide competition, AlphaScreen; read-out: (a) IC50 EED Alphascreen binding Qualified
T1 construct: 30 nM EED (1-441)-His protein
In short: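 Serially diluted compound (12 points, 3-fold) incubated 20 min with 30 nM EED(1-441)-His and 15 nM biotin-H3K27Me3(19-33) peptide in 25 mM HEPES pH 8, 0.02% Tween-20, 0.5% BSA. Ni-chelate acceptor/streptavidin donor beads (10 μg/mL each) added, 1 h rt dark; 615 nm emission normalized to controls, dose-response fit for IC50.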

Sequence of wild type PRC2 (wtPRC2) complex (O75530 whole entry): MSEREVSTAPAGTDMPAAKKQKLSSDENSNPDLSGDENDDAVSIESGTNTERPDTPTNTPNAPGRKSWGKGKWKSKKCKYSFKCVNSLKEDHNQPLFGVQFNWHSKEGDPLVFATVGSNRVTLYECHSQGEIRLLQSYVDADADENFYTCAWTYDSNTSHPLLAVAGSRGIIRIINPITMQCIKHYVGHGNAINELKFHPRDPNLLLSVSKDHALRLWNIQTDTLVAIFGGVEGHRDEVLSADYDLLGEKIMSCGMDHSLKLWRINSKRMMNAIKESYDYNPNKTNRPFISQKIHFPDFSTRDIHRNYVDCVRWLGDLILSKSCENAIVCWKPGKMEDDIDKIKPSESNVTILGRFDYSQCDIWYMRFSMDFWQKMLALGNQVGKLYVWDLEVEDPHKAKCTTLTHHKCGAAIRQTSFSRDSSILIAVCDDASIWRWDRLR
Sequence of wild type PRC2 (wtPRC2) complex (Q15910 whole entry partner): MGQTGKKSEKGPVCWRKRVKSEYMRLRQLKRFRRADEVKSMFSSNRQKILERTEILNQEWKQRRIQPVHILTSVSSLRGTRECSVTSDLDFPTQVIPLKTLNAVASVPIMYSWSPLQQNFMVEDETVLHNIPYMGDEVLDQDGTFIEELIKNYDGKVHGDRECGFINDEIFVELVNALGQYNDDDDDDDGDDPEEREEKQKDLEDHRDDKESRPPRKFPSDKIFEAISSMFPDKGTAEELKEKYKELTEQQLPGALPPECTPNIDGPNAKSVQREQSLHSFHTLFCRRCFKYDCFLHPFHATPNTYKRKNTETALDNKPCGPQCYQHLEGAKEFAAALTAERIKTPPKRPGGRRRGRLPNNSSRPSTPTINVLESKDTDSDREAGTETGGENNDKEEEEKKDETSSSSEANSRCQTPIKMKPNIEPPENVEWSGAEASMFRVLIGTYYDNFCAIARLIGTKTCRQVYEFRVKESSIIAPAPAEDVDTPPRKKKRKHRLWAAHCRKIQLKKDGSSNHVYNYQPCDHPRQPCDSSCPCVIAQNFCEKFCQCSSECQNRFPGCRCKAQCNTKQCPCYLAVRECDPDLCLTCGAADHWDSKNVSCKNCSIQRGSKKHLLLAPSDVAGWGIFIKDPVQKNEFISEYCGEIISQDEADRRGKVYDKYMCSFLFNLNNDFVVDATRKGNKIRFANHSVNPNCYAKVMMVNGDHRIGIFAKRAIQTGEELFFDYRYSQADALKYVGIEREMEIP
Sequence of wild type PRC2 (wtPRC2) complex (Q15022 whole entry partner): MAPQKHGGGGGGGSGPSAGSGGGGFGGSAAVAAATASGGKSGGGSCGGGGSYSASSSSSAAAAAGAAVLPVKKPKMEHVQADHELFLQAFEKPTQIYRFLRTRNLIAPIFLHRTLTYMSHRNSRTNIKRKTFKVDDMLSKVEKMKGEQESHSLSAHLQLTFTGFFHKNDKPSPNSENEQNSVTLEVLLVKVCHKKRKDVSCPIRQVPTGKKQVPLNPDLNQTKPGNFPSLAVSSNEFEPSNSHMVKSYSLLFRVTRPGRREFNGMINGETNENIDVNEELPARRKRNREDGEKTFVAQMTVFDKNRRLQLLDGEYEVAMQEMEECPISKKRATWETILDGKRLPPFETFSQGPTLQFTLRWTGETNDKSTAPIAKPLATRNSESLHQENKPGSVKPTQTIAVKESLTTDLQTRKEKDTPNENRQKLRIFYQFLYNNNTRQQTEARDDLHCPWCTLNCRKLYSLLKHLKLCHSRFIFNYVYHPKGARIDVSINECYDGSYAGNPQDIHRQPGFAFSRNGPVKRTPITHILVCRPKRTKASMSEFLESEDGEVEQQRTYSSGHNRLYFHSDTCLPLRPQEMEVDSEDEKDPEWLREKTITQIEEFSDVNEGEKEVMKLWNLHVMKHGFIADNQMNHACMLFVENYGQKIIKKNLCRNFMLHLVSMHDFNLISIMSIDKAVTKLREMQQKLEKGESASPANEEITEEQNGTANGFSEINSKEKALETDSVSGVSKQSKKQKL
Sequence of wild type PRC2 (wtPRC2) complex (Q09028 whole entry partner): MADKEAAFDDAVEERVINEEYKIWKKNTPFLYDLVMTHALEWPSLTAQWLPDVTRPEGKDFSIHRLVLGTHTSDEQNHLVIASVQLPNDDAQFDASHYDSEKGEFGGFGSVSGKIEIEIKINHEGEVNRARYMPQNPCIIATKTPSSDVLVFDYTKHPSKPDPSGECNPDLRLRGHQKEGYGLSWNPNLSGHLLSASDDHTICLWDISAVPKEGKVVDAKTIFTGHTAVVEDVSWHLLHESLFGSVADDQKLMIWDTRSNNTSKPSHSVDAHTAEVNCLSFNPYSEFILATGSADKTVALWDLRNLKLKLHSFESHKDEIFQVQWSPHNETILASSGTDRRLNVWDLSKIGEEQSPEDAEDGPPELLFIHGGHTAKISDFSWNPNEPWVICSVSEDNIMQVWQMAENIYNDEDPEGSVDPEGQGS
Sequence of wild type PRC2 (wtPRC2) complex (Q6ZN18 whole entry partner): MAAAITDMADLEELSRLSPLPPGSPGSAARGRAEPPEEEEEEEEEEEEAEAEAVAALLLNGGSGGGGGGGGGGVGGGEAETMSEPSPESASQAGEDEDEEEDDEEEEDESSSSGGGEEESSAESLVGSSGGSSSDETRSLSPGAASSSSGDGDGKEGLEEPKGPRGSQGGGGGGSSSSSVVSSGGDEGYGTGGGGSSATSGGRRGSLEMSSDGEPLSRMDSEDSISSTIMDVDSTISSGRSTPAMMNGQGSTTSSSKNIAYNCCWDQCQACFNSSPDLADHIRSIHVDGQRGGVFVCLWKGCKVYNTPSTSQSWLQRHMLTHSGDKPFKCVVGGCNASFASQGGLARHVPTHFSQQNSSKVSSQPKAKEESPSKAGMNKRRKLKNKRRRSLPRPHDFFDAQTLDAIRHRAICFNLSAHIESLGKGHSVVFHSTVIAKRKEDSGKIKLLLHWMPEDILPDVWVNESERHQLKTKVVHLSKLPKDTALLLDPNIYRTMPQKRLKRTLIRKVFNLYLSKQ
T1 sequence (O75530 whole entry): as the sequence (O75530 whole entry) above

Compound	IC50 [1] [nM]	IC50 [2] [nM]	IC50 [3] [nM]
COc1cccc(F)c1CNc1ccc(-c2cncnc2C)c2nncn12 [Example 221, N-(2-fluoro-6-methoxybenzyl)-8-(4-methylpyrimidin-5-yl)-[1,2,4] triazolo[4,3-a]pyridin-5-amine]	14.9	12.1	21.6
COc1cccc(F)c1CNc1ccc(-c2ccc(F)nc2C)c2nncn12 [Example 222, 8-(6-fluoro-2-methylpyridin-3-yl)-N-(2-fluoro-6-methoxybenzyl)-[1,2,4]triazolo[4,3-a] pyridin-5-amine]	122	9.9	9.9
COc1cccc(F)c1CNc1ccc(-c2cc(F)ccc2C)c2nncn12 [Example 223, 8-(5-fluoro-2-methylphenyl)-N-(2-fluoro-6-methoxybenzyl)-[1,2,4]triazolo[4,3-a] pyridin-5-amine]	230	66.7	23.3
COc1cccc(F)c1CNc1ccc(-c2cnn(C3CCNCC3)c2)c2nncn12 [Example 225, N-(2-fluoro-6-methoxybenzyl)-8-(1-(piperidin-4-yl)-1H-pyrazol-4-yl)-[1,2,4]triazolo[4,3-a]pyridin-5-amine]	147	15.9	26.9
COc1cccc(F)c1CNc1ccc(-c2cnn(CCN3CCOCC3)c2)c2nncn12 [Example 226, N-(2-fluoro-6-methoxybenzyl)-8-(1-(2-morpholinoethyl)-1H-pyrazol-4-yl)-[1,2,4] triazolo[4,3-a]pyridin-5-amine]	92	38.8	43.3
COc1cc(F)cc(F)c1CNc1ccc(-c2c(C)noc2C)c2nncn12 [Example 227, N-(2,4-difluoro-6-methoxybenzyl)-8-(3,5-dimethylisoxazol-4-yl)-[1,2,4] triazolo[4,3-a]pyridin-5-amine]	131	40.2	45.5
COc1cc(F)cc(F)c1CNc1ccc(-c2ccncc2)c2nncn12 [Example 228, N-(2,4-difluoro-6-methoxybenzyl)-8-(pyridin-4-yl)-[1,2,4]triazolo[4,3-a]pyridin-5-amine]	98.6	43.7	78.9
COc1cccc(F)c1CNc1ccc(-c2ccc(S(C)(=O)=O)cc2C)c2nncn12 [Example 229, N-(2-fluoro-6-methoxybenzyl)-8-(2-methyl-4-(methylsulfonyl)phenyl)-[1,2,4]triazolo[4,3-a]pyridin-5-amine]	55.9	13.5	16.1
COc1cccc(F)c1CNc1ccc(-c2ccncc2C)c2nncn12 [Example 230, N-(2-fluoro-6-methoxybenzyl)-8-(3-methylpyridin-4-yl)-[1,2,4]triazolo[4,3-a] pyridin-5-amine]	27.2	9.4	12.9
COc1cccc(F)c1CNc1ccc(-c2ccc(C(=O)N(C)C)cc2C)c2nncn12 [Example 231, 4-(5-((2-fluoro-6-methoxybenzyl)amino)-[1,2,4]triazolo[4,3-a]pyridin-8-yl)-N,N,3-trimethylbenzamide]	29.1	3.4	7.7
COc1cccc(F)c1CNc1ccc(-c2ccnn2C(C)C)c2nncn12 [Example 232, N-(2-fluoro-6-methoxybenzyl)-8-(1-isopropyl-1H-pyrazol-5-yl)-[1,2,4] triazolo[4,3-a]pyridin-5-amine]	159	62.2	50
CCn1nccc1-c1ccc(NCc2c(F)cccc2OC)n2cnnc12 [Example 233, 8-(1-ethyl-1H-pyrazol-5-yl)-N-(2-fluoro-6-methoxybenzyl)-[1,2,4]triazolo[4,3-a] pyridin-5-amine]	47.8	15.3	14
COc1cccc(F)c1CNc1ccc(-c2ccc(CCC(=O)N(C)C)nc2)c2nncn12 [Example 234, 3-(5-(5-((2-fluoro-6-methoxybenzyl)amino)-[1,2,4]triazolo[4,3-a]pyridin-8-yl)pyridin-2-yl)-N,N-dimethyl propanamide]	149	26.3	35
COc1cc(F)cc(F)c1CNc1ccc(-c2ccc(S(C)(=O)=O)cc2)c2nncn12 [Example 235, N-(2,4-difluoro-6-methoxybenzyl)-8-(4-(methylsulfonyl)phenyl)-[1,2,4]triazolo[4,3-a]pyridin-5-amine]	107	138	68.7
COc1cccc(F)c1CNc1ccc(-c2cnccc2Cl)c2nncn12 [Example 236, 8-(4-chloropyridin-3-yl)-N-(2-fluoro-6-methoxybenzyl)-[1,2,4]triazolo[4,3-a]pyridin-5-amine]	116	66.3	83.6
COc1cccc(F)c1CNc1ccc(-c2cccnc2C(F)(F)F)c2nncn12 [Example 237, N-(2-fluoro-6-methoxybenzyl)-8-(2-(trifluoromethyl)pyridin-3-yl)-[1,2,4]triazolo[4,3-a] pyridin-5-amine]	116	116	86.9
COc1cccc(F)c1CNc1ccc(-c2ccccc2CO)c2nncn12 [Example 238, (2-(5-((2-fluoro-6-methoxy benzyl)amino)-[1,2,4]triazolo[4,3-a]pyridin-8-yl)phenyl)methanol]	153	85.3	74.5
COc1cc(F)cc(F)c1CNc1ccc(-c2cccnc2C)c2nncn12 [Example 239, N-(2,4-difluoro-6-methoxybenzyl)-8-(2-methylpyridin-3-yl)-[1,2,4]triazolo[4,3-a]pyridin-5-amine]	39.6	20	24.6
COc1cc(F)cc(F)c1CNc1ccc(-c2cnc(S(C)(=O)=O)cc2C)c2nncn12 [Example 240, N-(2,4-difluoro-6-methoxybenzyl)-8-(4-methyl-6-(methylsulfonyl)pyridin-3-yl)-[1,2,4]triazolo[4,3-a] pyridin-5-amine]	53.4	29.5	52.1
COc1cc(F)cc(F)c1CNc1ccc(-c2ccc(S(C)(=O)=O)nc2C)c2nncn12 [Example 241, N-(2,4-difluoro-6-methoxybenzyl)-8-(2-methyl-6-(methylsulfonyl)pyridin-3-yl)-[1,2,4]triazolo[4,3-a] pyridin-5-amine]	56.2	12.6	16.2
COc1cccc(F)c1CNc1ccc(-c2c(C)nn(C(C)C)c2C)c2nncn12 [Example 245, N-(2-fluoro-6-methoxybenzyl)-8-(1-isopropyl-3,5-dimethyl-1H-pyrazol-4-yl)-[1,2,4]triazolo[4,3-a]pyridin-5-amine]	27.7	8.2	14.6
COC(=O)N1CCC(n2cc(-c3ccc(NCc4c(F)cccc4OC)n4cnnc34)cn2)CC1 [Example 246, methyl 4-(4-(5-((2-fluoro-6-methoxybenzyl)amino)-[1,2,4]triazolo[4,3-a]pyridin-8-yl)-1H-pyrazol-1-yl) piperidine-1-carboxylate]	106	242	68.9
COc1cccc(F)c1CNc1ccc(-c2cn(C)nc2C(F)(F)F)c2nncn12 [Example 247, N-(2-fluoro-6-methoxybenzyl)-8-(1-methyl-3-(trifluoromethyl)-1H-pyrazol-4-yl)-[1,2,4]triazolo[4,3-a] pyridin-5-amine]	700	42.7	35.8
COc1cccc(F)c1CNc1ccc(-c2cnc(F)cc2C)c2nncn12 [Example 248, 8-(6-fluoro-4-methylpyridin-3-yl)-N-(2-fluoro-6-methoxybenzyl)-[1,2,4]triazolo[4,3-a] pyridin-5-amine]	81.8	9.6	16.5
COc1cccc(F)c1CNc1ccc(-c2ccc(C)nc2C)c2nncn12 [Example 249, 8-(2,6-dimethylpyridin-3-yl)-N-(2-fluoro-6-methoxybenzyl)-[1,2,4]triazolo[4,3-a] pyridin-5-amine]	41.9	12.4	22.7
COc1cccc(F)c1CNc1ccc(-c2ccc(C#N)nc2C)c2nncn12 [Example 250, 5-(5-((2-fluoro-6-methoxybenzyl)amino)-[1,2,4]triazolo[4,3-a]pyridin-8-yl)-6-methylpicolinonitrile]	20.2	6.5	14.3
COc1cccc(F)c1CNc1ccc(-c2cnc(C#N)cc2C)c2nncn12 [Example 251, 5-(5-((2-fluoro-6-methoxybenzyl)amino)-[1,2,4]triazolo[4,3-a]pyridin-8-yl)-4-methylpicolinonitrile]	41.8	8.6	15.7
COc1cccc(F)c1CNc1ccc(-c2cnc(C(=O)N(C)C)cc2C)c2nncn12 [Example 252, 5-(5-((2-fluoro-6-methoxybenzyl)amino)-[1,2,4]triazolo[4,3-a]pyridin-8-yl)-N,N,4-trimethylpicolinamide]	7.9	4.4	14.1
